Results reported in paper PMC6920499, “Sustainability potentials of novel laccase tinctures from Stenotrophomonas maltophilia BIJ16 and Bordetella bronchiseptica HSO16: From dye decolourization to denim bioscouring” (Biotechnology Reports, 2019).

Tests used:
[1] = tested on: T1, Stenotrophomonas sp. BIJ16 laccase (Berl1^1b2 laccase); assay: ABTS oxidation at […] nm, Lineweaver-Burk; type: biochemical; conditions: crude laccase; standard assay potassium phosphate pH 6, 30 °C
T1 construct: gene MCOStm; crude culture supernatant, native secreted laccase, not purified; several laccase-like genes inferred by PCR
From the text: BIJ16 laccase (Berl1^1b2 laccase)

[2] = tested on: T2, Bordetella sp. HSO16 laccase (Hb16c laccase); assay: ABTS oxidation at […] nm, Lineweaver-Burk; type: biochemical; conditions: crude laccase; standard assay potassium phosphate pH 6, 30 °C
T2 construct: gene cueO; crude culture supernatant, native secreted laccase, not purified; several laccase-like genes inferred by PCR
From the text: HSO16 laccase (Hb16c laccase)

CCn1c(=NN=c2sc3cc(S(=O)(=O)O)ccc3n2CC)sc2cc(S(=O)(=O)O)ccc21 [ABTS, 2,2’-azino-bis (3-ethylbenzothiazoline-6-sulfonic acid)]
Km [1]: 0.636 µM | Km [2]: 1.09 µM
